Results reported in ChEMBL document CHEMBL5608170, “An insight into sustainable and green chemistry approaches for the synthesis of quinoline derivatives as anticancer agents” (Eur J Med Chem, 2024).
In brackets after ≈: the same amount, converted by molar mass.

Assays:
MCF7 [1] = assay: Cytotoxicity against human MCF7 cells assessed as reduction in cell viability incubated for 24 hrs by MTT assay; type: functional, cell-based; settings: MCF7, 24 h
HCT-116 = assay: Cytotoxicity against human HCT-116 cells assessed as reduction in cell viability incubated for 24 hrs by MTT assay; type: functional, cell-based; settings: HCT-116, 24 h
HepG2 [2] = assay: Cytotoxicity against human HepG2 cells assessed as reduction in cell viability incubated for 24 hrs by MTT assay; type: functional, cell-based; settings: HepG2, 24 h
A549 [3] = assay: Cytotoxicity against human A549 cells assessed as reduction in cell viability incubated for 24 hrs by MTT assay; type: functional, cell-based; settings: A549, 24 h
HBL-100 = assay: Growth inhibition of human HBL-100 cells; type: functional
A549 [4] = assay: Growth inhibition of human A549 cells; type: functional
HeLa [5] = assay: Growth inhibition of human HeLa cells; type: functional
SW1573 = assay: Growth inhibition of human SW1573 cells; type: functional
T47D = assay: Growth inhibition of human T47D cells; type: functional
WiDr = assay: Growth inhibition of human WiDr cells; type: functional
A549 [6] = assay: Antiproliferative activity against human A549 cells assessed as reduction in cell viability by MTT assay; type: functional, cell-based
NCI-H460 = assay: Antiproliferative activity against human NCI-H460 cells assessed as reduction in cell viability by MTT assay; type: functional, cell-based
UO-31 = assay: Growth inhibition of human UO-31 cells at 10 uM by SRB assay relative to control; type: functional; settings: read-out: GI
HOP-92 = assay: Growth inhibition of human HOP-92 cells at 10 uM by SRB assay relative to control; type: functional; settings: read-out: GI
CCRF-CEM = assay: Growth inhibition of human CCRF-CEM cells at 10 uM by SRB assay relative to control; type: functional; settings: read-out: GI
A498 = assay: Growth inhibition of human A498 cells at 10 uM by SRB assay relative to control; type: functional; settings: read-out: GI
HOP-62 = assay: Growth inhibition of human HOP-62 cells at 10 uM by SRB assay relative to control; type: functional; settings: read-out: GI
MDA-MB-231 [7] = assay: Cytotoxicity against human MDA-MB-231 cells assessed as reduction in cell viability incubated for 48 hrs by MTT assay; type: functional, cell-based; settings: MDA-MB-231, 48 h
HeLa [8] = assay: Anticancer activity against human HeLa cells assessed as reduction in cell growth incubated for 48 hrs by MTT assay; type: functional, cell-based
MCF7 [9] = assay: Anticancer activity against human MCF7 cells assessed as reduction in cell growth incubated for 48 hrs by MTT assay; type: functional, cell-based; settings: MCF7, 48 h
A549 [10] = assay: Anticancer activity against human A549 cells assessed as reduction in cell growth incubated for 48 hrs by MTT assay; type: functional, cell-based; settings: A549, 48 h
HepG2 [11] = assay: Cytotoxicity against human HepG2 cells assessed as reduction in cell growth by MTT assay; type: functional, cell-based
MCF7 [12] = assay: Cytotoxicity against human MCF7 cells assessed as reduction in cell growth by MTT assay; type: functional, cell-based
A549 [13] = assay: Cytotoxicity against human A549 cells assessed as reduction in cell growth by MTT assay; type: functional, cell-based
MDA-MB-231 [14] = assay: Cytotoxicity against human MDA-MB-231 cells assessed as reduction in cell growth measured for 48 hrs by MTT assay; type: functional, cell-based; settings: MDA-MB-231, 48 h
PC-3 = assay: Cytotoxicity against human PC-3 cells assessed as reduction in cell growth measured for 48 hrs by MTT assay; type: functional, cell-based; settings: PC-3, 48 h
DU-145 = assay: Cytotoxicity against human DU-145 cells assessed as reduction in cell growth measured for 48 hrs by MTT assay; type: functional, cell-based; settings: DU-145, 48 h
B16-F10 = assay: Cytotoxicity against mouse B16-F10 cells assessed as reduction in cell viability incubated for 48 hrs by MTT assay; type: functional, cell-based; settings: B16-F10, 48 h
A549 [15] = assay: Cytotoxicity against human A549 cells assessed as reduction in cell viability incubated for 72 hrs by MTT assay; type: functional, cell-based; settings: A549, 72 h
HT-29 = assay: Cytotoxicity against human HT-29 cells assessed as reduction in cell viability incubated for 72 hrs by MTT assay; type: functional, cell-based; settings: HT-29, 72 h
HeLa [16] = assay: Growth inhibition of human HeLa cells by SRB assay; type: functional

N#CC1=C(N)Oc2c(cc(Cl)c3cccnc23)C1c1ccc(Br)cc1 (centres undefined) was tested. Which IC50 (MCF7 [1]) did it give?
The IC50 was 0.99 µg/mL (≈ 2.4 µM).

What about the IC50 (HCT-116) of the same compound?
Its IC50 is 5.81 µg/mL (≈ 14.1 µM).

And the IC50 (HepG2 [2])?
Its IC50 is 1.23 µg/mL (≈ 2.98 µM).

And the IC50 (A549 [3])?
The IC50 was 3.1 µg/mL (≈ 7.51 µM).

Which results are given for COc1cc2nccc(Oc3ccc(NC(=O)C4(C(=O)Nc5ccc(F)cc5)CC4)cc3)c2cc1OC [CABOZANTINIB]?
GI50 (HBL-100): 17 µM; GI50 (A549 [4]): 9.5 µM; GI50 (HeLa [5]): 11 µM; GI50 (SW1573): 6 µM; GI50 (T47D): 16 µM; GI50 (WiDr): 14 µM

What does the source list for N#CC1=C(N)Oc2c(cc(Cl)c3cccnc23)C1c1ccc(Cl)cc1Cl (centres undefined)?
IC50 (MCF7 [1]): 1.18 µg/mL (≈ 2.93 µM); IC50 (HCT-116): 3.01 µg/mL (≈ 7.48 µM); IC50 (HepG2 [2]): 0.87 µg/mL (≈ 2.16 µM); IC50 (A549 [3]): 1.79 µg/mL (≈ 4.45 µM)

Which IC50 (A549 [6]) does the source give for COc1ccc(Nc2nc3ccccc3c(Nc3ccc(OC)cc3)c2[N+](=O)[O-])cc1 here?
Its IC50 is 11.2 µM.

And the IC50 (NCI-H460)?
Its IC50 is 7.1 µM.

For Cc1cc(=O)n(C(=O)Nc2ccc(F)c(Cl)c2)c2cc(O)ccc12, which inhibition of growth at 10 µM (UO-31) is on record?
The inhibition of growth at 10 µM was 30%.

What about the inhibition of growth at 10 µM (HOP-92) of the same compound?
Its inhibition of growth at 10 µM is 27.4%.

And the inhibition of growth at 10 µM (CCRF-CEM)?
The inhibition of growth at 10 µM was 58.6%.

And the inhibition of growth at 10 µM (A498)?
Its inhibition of growth at 10 µM is 20.5%.

And the inhibition of growth at 10 µM (HOP-62)?
The inhibition of growth at 10 µM was 17.6%.

For COc1ncccc1-c1cc(-c2cn(Cc3ccccc3F)nn2)cc2ccc(C)nc12, which IC50 (MDA-MB-231 [7]) is on record?
Its IC50 is 19.8 µM.

What does the source list for Cc1cc(C)cc(-n2nnc3c2-c2ccc4cccnc4c2OC3)c1?
IC50 (HeLa [8]): 11.4 µM; IC50 (MCF7 [9]): 16.9 µM; IC50 (A549 [10]): 32.5 µM

For N#CC1C(=S)N=C2C(=C1c1ccc(Cl)cc1)CCC/C2=C\c1ccc(Cl)cc1 (centres undefined), which IC50 (HepG2 [11]) is on record?
The IC50 was 2.86 µg/mL (≈ 6.76 µM).

What about the IC50 (MCF7 [12]) of the same compound?
The IC50 was 3.17 µg/mL (≈ 7.49 µM).

And the IC50 (A549 [13])?
Its IC50 is 25.5 µg/mL (≈ 60.3 µM).

How did the GI50 (HBL-100) turn out when CCOc1cc2ncc(C#N)c(Nc3ccc(OCc4ccccn4)c(Cl)c3)c2cc1NC(=O)/C=C/CN(C)C [NERATINIB] was run?
The GI50 was 1.6 µM.

How did the IC50 (MDA-MB-231 [14]) turn out when O=C1N(c2cccnc2)c2[nH]c(=O)[nH]c(=O)c2C12c1ccccc1Nc1c2[nH]c(=O)[nH]c1=O (centres undefined) was run?
Its IC50 is 7.97 µM.

And the IC50 (PC-3)?
The IC50 was 15.4 µM.

What about the IC50 (DU-145) of the same compound?
The IC50 was 15 µM.

How did the IC50 (B16-F10) turn out when CNC(=O)c1cccc2cc(Oc3ccnc4cc(OCC5(N)CC5)c(OC)cc34)ccc12 [LUCITANIB] was run?
Its IC50 is 16.3 µM.

N#CC1C(=S)N=C2C(=C1c1ccc(F)cc1)CCC/C2=C\c1ccc(F)cc1 (centres undefined) was tested. Which IC50 (HepG2 [11]) did it give?
Its IC50 is 11.2 µg/mL (≈ 28.8 µM).

What about the IC50 (MCF7 [12]) of the same compound?
Its IC50 is 13.1 µg/mL (≈ 33.7 µM).

What about the IC50 (A549 [13]) of the same compound?
The IC50 was 28.4 µg/mL (≈ 72.9 µM).

COc1cc2nccc(Oc3ccc(NC(=O)Nc4cc(C)on4)c(Cl)c3)c2cc1OC [TIVOZANIB] was tested. Which IC50 (B16-F10) did it give?
The IC50 was 18.8 µM.

Which IC50 (MDA-MB-231 [7]) does the source give for COc1ncc(-c2cc(-c3cn(Cc4ccccc4F)nn3)cc3ccc(C)nc23)cc1F here?
Its IC50 is 20.6 µM.

With COc1cc(/C=C2\OCc3nc4ccccc4c(-c4ccccc4)c3C2=O)cc(OC)c1OC as the compound, how does the IC50 (A549 [15]) read?
The IC50 was 4.82 µg/mL (≈ 10.6 µM).

And the IC50 (HT-29)?
The IC50 was 7.69 µg/mL (≈ 17 µM).

How did the IC50 (MCF7 [1]) turn out when N#CC1=C(N)Oc2c(ccc3cccnc23)C1c1cccc(Cl)c1 (centres undefined) was run?
Its IC50 is 1.42 µg/mL (≈ 4.25 µM).

What about the IC50 (HCT-116) of the same compound?
The IC50 was 1.35 µg/mL (≈ 4.04 µM).

What about the IC50 (HepG2 [2]) of the same compound?
Its IC50 is 1.87 µg/mL (≈ 5.6 µM).

And the IC50 (A549 [3])?
Its IC50 is 1.23 µg/mL (≈ 3.69 µM).

Cc1ccc2ccc3c(c2n1)OC(N)=C(C#N)C3c1cccc(Cl)c1Cl (centres undefined) was tested. Which IC50 (MCF7 [1]) did it give?
Its IC50 is 1.24 µg/mL (≈ 3.24 µM).

And the IC50 (HepG2 [2])?
Its IC50 is 1.83 µg/mL (≈ 4.79 µM).

For CC(=O)NC1=NN(C(C)=O)C(c2cc3cc(Br)ccc3n3nnnc23)S1 (centres undefined), which GI50 (HeLa [16]) is on record?
The GI50 was under 0.1 µM.

CCOc1cc2ncc(C#N)c(Nc3ccc(F)c(Cl)c3)c2cc1NC(=O)/C=C/CN(C)C [PELITINIB] was tested. Which GI50 (HBL-100) did it give?
Its GI50 is 19 µM.

And the GI50 (A549 [4])?
Its GI50 is 7.7 µM.

What about the GI50 (HeLa [5]) of the same compound?
The GI50 was 8.3 µM.

And the GI50 (SW1573)?
The GI50 was 20 µM.

What about the GI50 (T47D) of the same compound?
The GI50 was 16 µM.

What about the GI50 (WiDr) of the same compound?
Its GI50 is 12 µM.

With COc1cc2c(Oc3ccc4[nH]c(C)cc4c3F)ccnc2cc1OCC1(N)CC1 [CATEQUENTINIB] as the compound, how does the IC50 (MDA-MB-231 [7]) read?
Its IC50 is 17 µM.
